Holding throughout (type): biochemical
One assay addresses T1, DYRK3 (Homo sapiens, UniProt O43781).
T1 construct: purchased Carna Biosciences, Inc. 04-133
T1 sequence (O43781 1-568 isoform O43781-2): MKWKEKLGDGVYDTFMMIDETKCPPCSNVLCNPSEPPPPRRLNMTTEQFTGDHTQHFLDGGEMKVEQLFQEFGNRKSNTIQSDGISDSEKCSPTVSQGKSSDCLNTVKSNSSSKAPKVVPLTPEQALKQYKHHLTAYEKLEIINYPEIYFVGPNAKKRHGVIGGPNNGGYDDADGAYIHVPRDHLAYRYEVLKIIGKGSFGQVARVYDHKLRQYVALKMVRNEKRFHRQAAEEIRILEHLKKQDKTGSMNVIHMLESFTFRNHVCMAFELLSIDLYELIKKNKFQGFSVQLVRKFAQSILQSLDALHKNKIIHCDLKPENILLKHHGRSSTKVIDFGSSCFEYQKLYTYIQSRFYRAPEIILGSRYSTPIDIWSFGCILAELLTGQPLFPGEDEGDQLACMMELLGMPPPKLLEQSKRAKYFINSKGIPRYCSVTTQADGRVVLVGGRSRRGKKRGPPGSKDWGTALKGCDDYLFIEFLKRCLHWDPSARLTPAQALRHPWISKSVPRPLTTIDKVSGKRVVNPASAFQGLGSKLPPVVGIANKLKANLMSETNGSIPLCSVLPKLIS
Kind of assay: Inhibition test on activity of DYRK family, mobility shift assay (MSA): DYRK3. Summed up: (§1)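 Mobility-shift readout of FITC-DYRKtide phosphorylation in 20 mM HEPES pH 7.5. The substrate mix held 4 µM peptide, 20 mM MgCl2 and ATP at 100 (1A), 200 (1B), 40 (2) or 20 µM (3). Reaction 1 h at room temperature; IC50 from regression of P/(P+S)-based inhibition vs log concentration.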

The next assay addresses T2, DYRK2 (Homo sapiens, UniProt Q92630).
T2 construct: purchased Carna Biosciences, Inc. 04-132
T2 sequence (Q92630 74-601 limits assumed): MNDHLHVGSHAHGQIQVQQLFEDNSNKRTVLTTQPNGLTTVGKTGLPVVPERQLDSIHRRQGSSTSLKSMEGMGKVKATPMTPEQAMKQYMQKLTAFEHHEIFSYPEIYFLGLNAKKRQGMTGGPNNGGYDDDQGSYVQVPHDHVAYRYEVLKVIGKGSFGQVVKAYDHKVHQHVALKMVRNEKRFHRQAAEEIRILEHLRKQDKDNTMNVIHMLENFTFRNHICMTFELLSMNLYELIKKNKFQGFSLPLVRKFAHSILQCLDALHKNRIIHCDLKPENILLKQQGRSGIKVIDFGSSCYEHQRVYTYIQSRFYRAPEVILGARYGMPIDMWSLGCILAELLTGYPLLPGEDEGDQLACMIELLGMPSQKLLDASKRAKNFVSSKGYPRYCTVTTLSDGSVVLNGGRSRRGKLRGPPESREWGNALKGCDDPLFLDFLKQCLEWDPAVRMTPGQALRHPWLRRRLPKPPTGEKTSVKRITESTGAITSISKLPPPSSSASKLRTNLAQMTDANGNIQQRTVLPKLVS
Kind of assay: Inhibition test on activity of DYRK family, mobility shift assay (MSA): DYRK2. In short, it runs like this: as §1

Another assay has as its target T3, DYRK1A (Homo sapiens, UniProt Q13627).
T3 construct: purchased Carna Biosciences, Inc. 04-130
Description: Inhibition test on activity of DYRK family, mobility shift assay (MSA): DYRK1A. In short, it runs like this:
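Mobility shift assay with recombinant DYRK1A (0.2 ng/μL enzyme solution), FITC-DYRKtide substrate (4 μM in substrate mix), 100 μM ATP in substrate mix, HEPES pH 7.5 buffer with MgCl2; 1 h at room temperature. Phosphorylated vs unphosphorylated peptide peaks quantified; IC50 from regression of inhibition rate against log concentration.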

Where [1] appears, read: MSA, FITC-labeled DYRKtide peptide, ATP 20 μM, read-out: Inhibitory activity DYRK 3 (IC50 class).
[2] abbreviates: MSA, FITC-labeled DYRKtide peptide, ATP 40 μM, read-out: Inhibitory activity DYRK 2 (IC50 class).
[3] abbreviates: MSA, FITC-labeled DYRKtide peptide, ATP 100 μM, read-out: Inhibitory activity DYRK 1A (IC50 class).
Where [4] appears, read: read-out: Inhibitory activity DYRK 3.
The mark [5] stands for this setting: read-out: Inhibitory activity DYRK 2.
Setting [6] is: read-out: Inhibitory activity DYRK 1A.

Like-named read-outs stand apart in the source and are kept apart here.

Consider `CN1CCC[C@@H]2NC(=O)N(c3nc4c5c(ccc4s3)OCC5)[C@@H]2C1` (relative stereo) [Example 17, cis-3-(7,8-dihydrofuro[3,2-e][1,3]benzothiazol-2-yl)-5-methyloctahydroimidazo[4,5-c]azepin-2(1H)-one], for which the IC50 is at least 1000 nM at DYRK3 (setting [1]), at least 1000 nM on DYRK2 (setting [2]) and 10 to 100 nM on DYRK1A (setting [3]).

`O=C1N[C@H]2CCN(C3CC3)C[C@H]2N1c1nc2c3c(ccc2s1)OCC3` (single isomer, unassigned) [Example 110]: the IC50 at DYRK3 (setting [4]) was at least 1000 nM; at DYRK2 (setting [5]) it was at least 1000 nM; on DYRK1A (setting [6]) it was under 10 nM.

Regarding `O=C1N[C@@H]2[C@@H](CO[C@@H]2CO)N1c1nc2c3c(ccc2s1)OCC3` [Example 153], the IC50 at DYRK3 (setting [1]) was 100 to 1000 nM; on DYRK2 (setting [2]) it was 100 to 1000 nM; at DYRK1A (setting [3]), 10 to 100 nM.

In the case of `CN1CCC[C@@H]2[C@H](C1)NC(=O)N2c1nc2c3c(ccc2s1)OCO3` [Example 84], the IC50 lay in the range of 100 to 1000 nM at DYRK3 (setting [1]), 100 to 1000 nM on DYRK2 (setting [2]) and 10 to 100 nM at DYRK1A (setting [3]).

Regarding `CO[C@H]1C[C@@H]2[C@H](CO1)NC(=O)N2c1nc2c3c(ccc2s1)OCC3` [Example 129, (3aR,6R,7aR)-1-(7,8-dihydrofuro[3,2-e][1,3]benzothiazol-2-yl)-6-methoxyhexahydropyrano[3,4-d]imidazol-2(3H)-one], the IC50 at DYRK3 (setting [4]) is 100 to 1000 nM; on DYRK2 (setting [5]), 100 to 1000 nM; at DYRK1A (setting [6]), 10 to 100 nM.

As for `C[C@H]1NC(=O)N(c2nc3c4c(ccc3s2)OCC4)[C@@H]1CN(C)C` [Example 22, (4R,5R)-1-(7,8-dihydrofuro[3,2-e][1,3]benzothiazol-2-yl)-5-[(dimethylamino)methyl]-4-methylimidazolidin-2-one], the figures for the IC50 on DYRK3 (setting [1]), at DYRK2 (setting [2]) and on DYRK1A (setting [3]) were at least 1000 nM, at least 1000 nM and 100 to 1000 nM, respectively.

`N#C[C@H]1C[C@H]2NC(=O)N(c3nc4c5c(ccc4s3)OCC5)[C@H]2CO1` [Example 128]: the IC50 at DYRK3 (setting [4]), at DYRK2 (setting [5]) and on DYRK1A (setting [6]) was at least 1000 nM throughout.

As for `COCCN1CCC2C(C1)NC(=O)N2c1nc2c3c(ccc2s1)OCC3` (stereo not drawn) [Example 10], the figures for the IC50 on DYRK3 (setting [1]), at DYRK2 (setting [2]) and at DYRK1A (setting [3]) were at least 1000 nM, at least 1000 nM and 100 to 1000 nM, respectively.

As for `O=C1N[C@H]2COCCC[C@H]2N1c1nc2c3c(ccc2s1)OCCO3` [Example 135, (3aR,8aR)-1-(7,8-dihydro[1,4]dioxino[2,3-e][1,3]benzothiazol-2-yl)hexahydro-1H-oxepino[3,4-d]imidazol-2(3H)-one], the IC50 at DYRK3 (setting [1]) lay within 100 to 1000 nM; on DYRK2 (setting [2]), 100 to 1000 nM; on DYRK1A (setting [3]) it was 10 to 100 nM.

Take `O=C1N[C@@H]2CCN(C3CC3)C[C@@H]2N1c1nc2c3c(ccc2s1)OCC3` (single isomer, unassigned) [Example 109]: the IC50 at DYRK3 (setting [4]), at DYRK2 (setting [5]) and at DYRK1A (setting [6]) was at least 1000 nM in each case.

Regarding `CN1CC[C@@H]2NC(=O)N(c3nc4c5c(ccc4s3)OCC5)[C@@H]2CC1` [Example 67], the values for the IC50 at DYRK3 (setting [1]), at DYRK2 (setting [2]) and at DYRK1A (setting [3]) were 100 to 1000 nM, at least 1000 nM and 100 to 1000 nM, respectively.

Take `CC1(C)C[C@@H]2[C@H](CO1)NC(=O)N2c1nc2c3c(ccc2s1)OCC3` [Example 124, (3aR,7aR)-1-(7,8-dihydrofuro[3,2-e][1,3]benzothiazol-2-yl)-6,6-dimethylhexahydropyrano[3,4-d]imidazol-2(3H)-one]: the IC50 on DYRK3 (setting [4]) is 100 to 1000 nM; at DYRK2 (setting [5]), 100 to 1000 nM; on DYRK1A (setting [6]) it was under 10 nM.

With `CC(=O)N1CC[C@@H]2NC(=O)N(c3nc4c5c(ccc4s3)OCC5)[C@@H]2C1` (relative stereo) [Example 20, cis-5-Acetyl-3-(7,8-dihydrofuro[3,2-e][1,3]benzothiazol-2-yl) octahydro-2H-imidazo[4,5-c]pyridin-2-one], the figures for the IC50 at DYRK3 (setting [1]), at DYRK2 (setting [2]) and on DYRK1A (setting [3]) were over 1000 nM, over 1000 nM and 100 to 1000 nM, respectively.

Take `CN1C[C@@H]2NC(=O)N(c3nc4c5c(ccc4s3)OCC5)[C@@H]2CC12CC2` [Example 89]: the IC50 at DYRK3 (setting [1]) was at least 1000 nM; at DYRK2 (setting [2]) it was at least 1000 nM; on DYRK1A (setting [3]) it was 100 to 1000 nM.

On to `O=C1N[C@H]2COCC[C@H]2N1c1nc2c3c(ccc2s1)OCC3` (racemic) [Example 121, rac-(3aR,7aR)-1-(7,8-dihydrofuro[3,2-e][1,3]benzothiazol-2-yl)hexahydropyrano[3,4-d]imidazol-2(3H)-one], for which the IC50 was 100 to 1000 nM on DYRK3 (setting [4]), 100 to 1000 nM on DYRK2 (setting [5]) and 10 to 100 nM on DYRK1A (setting [6]).

As for `O=C1N[C@H]2CCCN(C3CC3)C[C@H]2N1c1nc2c3c(ccc2s1)OCC3` (racemic) [Example 104, rac-(3aR,8aS)-5-cyclopropyl-3-(7,8-dihydrofuro[3,2-e][1,3]benzothiazol-2-yl)octahydroimidazo[4,5-c]azepin-2(1H)-one], the IC50 on DYRK3 (setting [4]) is 100 to 1000 nM; at DYRK2 (setting [5]) it was 100 to 1000 nM; on DYRK1A (setting [6]) it was under 10 nM.

On to `O=C1N[C@H]2CCN(C3COC3)C[C@H]2N1c1nc2c3c(ccc2s1)OCO3` (racemic) [Example 81, rac-(3aR,7aS)-3-(2H-[1,3]dioxolo[4,5-e][1,3]benzothiazol-7-yl)-5-(oxetan-3-yl)octahydro-2H-imidazo[4,5-c]pyridin-2-one], for which the IC50 on DYRK3 (setting [1]) is at least 1000 nM; on DYRK2 (setting [2]), at least 1000 nM; on DYRK1A (setting [3]) it was 10 to 100 nM.

As to `N#C[C@H]1C[C@@H]2[C@H](CO1)NC(=O)N2c1nc2c3c(ccc2s1)OCC3` [Example 127, (3aR,6R,7aR)-1-(7,8-dihydrofuro[3,2-e][1,3]benzothiazol-2-yl)-2-oxooctahydropyrano[3,4-d]imidazole-6-carbonitrile], the IC50 is 100 to 1000 nM at DYRK3 (setting [4]), 100 to 1000 nM on DYRK2 (setting [5]) and under 10 nM at DYRK1A (setting [6]).

Consider `N#C[C@H]1C[C@@H]2[C@H](CO1)NC(=O)N2c1nc2c3c(ccc2s1)OCCO3` [Example 133, (3aR,6R,7aR)-1-(7,8-dihydro[1,4]dioxino[2,3-e][1,3]benzothiazol-2-yl)-2-oxooctahydropyrano[3,4-d]imidazole-6-carbonitrile], for which the values for the IC50 at DYRK3 (setting [1]), on DYRK2 (setting [2]) and on DYRK1A (setting [3]) were 100 to 1000 nM, 100 to 1000 nM and under 10 nM, respectively.

On to `O=C1N[C@H]2CO[C@@H](CO)C[C@H]2N1c1nc2c3c(ccc2s1)OCCO3` [Example 146, (3aR,6R, 7aR)-1-(7,8-dihydro[1,4]dioxino[2,3-e][1,3]benzothiazol-2-yl)-6-(hydroxymethyl)hexahydropyrano[3,4-d]imidazol-2(3H)-one], for which the IC50 at DYRK3 (setting [1]) is 100 to 1000 nM; on DYRK2 (setting [2]), at least 1000 nM; at DYRK1A (setting [3]), under 10 nM.

For the compound `CN1CC[C@@H]2NC(=O)N(c3nc4c5c(ccc4s3)OCO5)[C@@H]2C1` (racemic) [Example 79, rac-(3aR,7aS)-3-(2H-[1,3]dioxolo[4,5-e][1,3]benzothiazol-7-yl)-5-methyloctahydro-2H-imidazo[4,5-c]pyridin-2-one], the IC50 on DYRK3 (setting [1]) was at least 1000 nM; on DYRK2 (setting [2]), at least 1000 nM; at DYRK1A (setting [3]), 10 to 100 nM.

As to `O=C1N[C@@H]2[C@@H](CCNC23CC3)N1c1nc2c3c(ccc2s1)OCC3` [Example 46], the IC50 was 100 to 1000 nM at DYRK3 (setting [1]), 100 to 1000 nM at DYRK2 (setting [2]) and 10 to 100 nM at DYRK1A (setting [3]).

(Values after patent US20230365589A1, “NOVEL AMINE DERIVATIVES” (Sumitomo Pharma Co., Ltd., priority 2020, published 2023).)
